Results taken from ChEMBL document CHEMBL1201862, “PubChem BioAssay data set” (2004).
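These data come from cells grown in 96-well plates and exposed to compound for 48 hours at five concentrations. Abbreviation: GI50, concentration required for 50% inhibition of growth.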 The source made the active and inactive calls. Rule as the data show it: active = GI50 up to about 1.1 µM and inactive = higher.

Experiments:
Assay in all cases: DTP human tumour cell line panel, 48 h
SW-620 = system: SW-620
NCI-H522 = system: NCI-H522
HT-29 = system: HT-29
NCI-H23 = system: NCI-H23
786-0 = system: 786-0
KM12 = system: KM12
COLO 205 = system: COLO 205
DLD-1 = system: DLD-1
SK-MEL-2 = system: SK-MEL-2
SN12C = system: SN12C
HCT-15 = system: HCT-15
SK-OV-3 = system: SK-OV-3
SF-539 = system: SF-539
HOP-62 = system: HOP-62
HL-60 = system: HL-60
SR = system: SR
Malme-3M = system: Malme-3M
OVCAR-5 = system: OVCAR-5

Compound | GI50 (SW-620) | GI50 (NCI-H522) | GI50 (HT-29) | GI50 (NCI-H23) | GI50 (786-0) | GI50 (KM12) | GI50 (COLO 205) | GI50 (DLD-1) | GI50 (SK-MEL-2) | GI50 (SN12C) | GI50 (HCT-15) | GI50 (SK-OV-3) | GI50 (SF-539) | GI50 (HOP-62) | GI50 (HL-60) | GI50 (SR) | GI50 (Malme-3M) | GI50 (OVCAR-5)
Nc1nc(Cl)cc(NCCCCCCCCNc2cc(Cl)nc(N)n2)n1 | 36.8 µM (inactive) | 1.13 µM (inactive) | 12.3 µM (inactive) | 1.22 µM (inactive) | 25.8 µM (inactive) | 14.7 µM (inactive) | 26.4 µM (inactive) | 10.2 µM (inactive) | 13.5 µM (inactive) | 57.4 µM (inactive) | 8.59 µM | > 100 µM (inactive) | 28.7 µM (inactive) | 27.8 µM (inactive) | 1.46 µM (inactive) | 3.61 µM (inactive) | – | –
COc1ccc2c(c1)C(=O)C1CC(=O)CCC21 (configuration not stated) | > 100 µM (inactive) | > 100 µM (inactive) | > 100 µM (inactive) | > 100 µM (inactive) | > 100 µM (inactive) | > 100 µM (inactive) | > 100 µM (inactive) | > 100 µM (inactive) | > 100 µM (inactive) | > 100 µM (inactive) | > 100 µM | > 100 µM (inactive) | > 100 µM (inactive) | > 100 µM (inactive) | > 100 µM (inactive) | > 100 µM (inactive) | > 100 µM (inactive) | > 100 µM (inactive)
CC(CCCOC(c1ccccc1)(c1ccccc1)c1ccccc1)OC(=O)Nc1ccccc1 (configuration not stated) | 14.4 µM (inactive) | 11.7 µM (inactive) | 13.1 µM (inactive) | 9.84 µM (inactive) | 16.1 µM (inactive) | 14 µM (inactive) | 18.2 µM (inactive) | 13.7 µM (inactive) | – | 12 µM (inactive) | 14.4 µM | 14.2 µM (inactive) | 17.8 µM (inactive) | 14.8 µM (inactive) | 11.6 µM (inactive) | 18.6 µM (inactive) | 15.8 µM (inactive) | 13.7 µM (inactive)
CCNC(=O)COc1ccc(Cl)c(C)c1 | > 100 µM (inactive) | > 100 µM (inactive) | > 100 µM (inactive) | > 100 µM (inactive) | > 100 µM (inactive) | > 100 µM (inactive) | > 100 µM (inactive) | > 100 µM (inactive) | > 100 µM (inactive) | > 100 µM (inactive) | > 100 µM | > 100 µM (inactive) | > 100 µM (inactive) | > 100 µM (inactive) | > 100 µM (inactive) | > 100 µM (inactive) | > 100 µM (inactive) | > 100 µM (inactive)
O=C(/C(=C/c1ccc(Cl)cc1)c1ccccc1)c1ccccc1 | 17.4 µM (inactive) | 14.2 µM (inactive) | 18 µM (inactive) | 17.5 µM (inactive) | 22.3 µM (inactive) | 16.9 µM (inactive) | 18.8 µM (inactive) | 15.2 µM (inactive) | 20.4 µM (inactive) | 16.7 µM (inactive) | 15.4 µM | 23.9 µM (inactive) | 17.4 µM (inactive) | 25.9 µM (inactive) | 19.9 µM (inactive) | 19.9 µM (inactive) | 17 µM (inactive) | 22.6 µM (inactive)
N#CC1CC2(C1)OCCS2 (configuration not stated) | > 100 µM (inactive) | > 100 µM (inactive) | > 100 µM (inactive) | > 100 µM (inactive) | > 100 µM (inactive) | > 100 µM (inactive) | > 100 µM (inactive) | > 100 µM (inactive) | > 100 µM (inactive) | > 100 µM (inactive) | > 100 µM | – | > 100 µM (inactive) | > 100 µM (inactive) | > 100 µM (inactive) | > 100 µM (inactive) | – | > 100 µM (inactive)
Cc1nc(Nc2ccc([N+](=O)[O-])cc2)sc1C(/C=C/c1ccc(N(C)C)cc1)=N/NC(=O)c1ccccc1 | 45.6 µM (inactive) | 31 µM (inactive) | 39.1 µM (inactive) | 47.8 µM (inactive) | 85.9 µM (inactive) | 36.4 µM (inactive) | > 100 µM (inactive) | 55 µM (inactive) | 92 µM (inactive) | 59.3 µM (inactive) | 29.6 µM | > 100 µM (inactive) | 42.9 µM (inactive) | 40 µM (inactive) | 22.6 µM (inactive) | 41.7 µM (inactive) | 70 µM (inactive) | > 100 µM (inactive)
Cc1c(Cl)cccc1N1C(=O)C(Cl)=C(Cl)C1=O | > 58.2 µM (inactive) | 13.5 µM (inactive) | > 100 µM (inactive) | > 100 µM (inactive) | 98.6 µM (inactive) | > 100 µM (inactive) | > 65.9 µM (inactive) | > 66.8 µM (inactive) | > 100 µM (inactive) | > 100 µM (inactive) | > 76.9 µM | > 100 µM (inactive) | > 100 µM (inactive) | > 100 µM (inactive) | – | 34.2 µM (inactive) | > 100 µM (inactive) | > 100 µM (inactive)
COc1ccc(/C(C#N)=C(/N)SCc2ccccc2Cl)cc1 | 16.1 µM (inactive) | 14 µM (inactive) | 17.5 µM (inactive) | 16.8 µM (inactive) | 16.1 µM (inactive) | > 10 µM (inactive) | 20.3 µM (inactive) | 14.1 µM (inactive) | 16.5 µM (inactive) | 24.7 µM (inactive) | – | 27.8 µM (inactive) | 17.4 µM (inactive) | 14.8 µM (inactive) | 14.3 µM (inactive) | 25.2 µM (inactive) | 17.5 µM (inactive) | 18.2 µM (inactive)
CC(C)(O)[C@@H]1CC[C@@]2(C)CCCC(O)C2(O)C1 (some centres not stated) | > 100 µM (inactive) | > 100 µM (inactive) | > 100 µM (inactive) | > 100 µM (inactive) | > 100 µM (inactive) | > 100 µM (inactive) | > 100 µM (inactive) | > 100 µM (inactive) | > 100 µM (inactive) | > 100 µM (inactive) | > 100 µM | > 100 µM (inactive) | > 100 µM (inactive) | > 100 µM (inactive) | > 100 µM (inactive) | > 100 µM (inactive) | > 100 µM (inactive) | > 100 µM (inactive)
COc1cc(C=O)c(-c2cc3c(cc2C=O)OCO3)c(OC)c1OC | 94.6 µM (inactive) | 41.8 µM (inactive) | 79.6 µM (inactive) | 63.1 µM (inactive) | 84.9 µM (inactive) | 59.3 µM (inactive) | 92.5 µM (inactive) | 88.7 µM (inactive) | 65.6 µM (inactive) | 85.9 µM (inactive) | 73.3 µM | 98.6 µM (inactive) | 81.8 µM (inactive) | 108 µM (inactive) | 94.8 µM (inactive) | 93.1 µM (inactive) | 96.6 µM (inactive) | > 290 µM (inactive)
COc1cc(C)c(CC/C(C)=C/Cc2cc(O)ccc2O)c(C)c1C [PANICEIN A HYDROQUINONE] | > 25 µM (inactive) | > 25 µM (inactive) | > 25 µM (inactive) | > 25 µM (inactive) | > 25 µM (inactive) | > 25 µM (inactive) | > 25 µM (inactive) | > 25 µM (inactive) | > 25 µM (inactive) | > 25 µM (inactive) | > 25 µM | > 25 µM (inactive) | > 25 µM (inactive) | – | > 25 µM (inactive) | > 25 µM (inactive) | > 25 µM (inactive) | –
